Data taken from paper PMC10108345, “Differentiating Inhibition Selectivity and Binding Affinity of Isocitrate Dehydrogenase 1 Variant Inhibitors” (Journal of Medicinal Chemistry, 2023).

Experiments:
[1] = biological target: T1, wt IDH1 (Homo sapiens, UniProt O75874); experiment: Absorbance turnover assay (NADPH, 340 nm), wt IDH1-catalyzed conversion of isocitrate to 2OG; format: biochemical; conditions: wt IDH1 (2 nM), isocitrate to 2OG; 100 mM tris-HCl, 10 mM MgCl2, pH 8.0; read-out: IC50/nM wt IDH1
T1 construct: made in house; host or cells: Escherichia coli BL21(DE3) pLyS
Procedure: (Figure 3, Scheme 1). […] We employed ^1H NMR (700 MHz) spectroscopy to simultaneously monitor NADPH, NADP^+, 2OG, and 2HG levels (Figure S3) in order to validate observations from the absorbance assays.
(§1) IDH1 activities were measured spectrophotometrically by monitoring changes in NADPH absorbance at 340 nm.[10] […] The difference in absorbance, ΔA340, in the linear range of the reaction profile was converted to % residual activity using a DMSO control as the 100% residual activity reference. […] Experiments were performed in (at least) triplicate. The standard assay buffer for IDH1 consists of 100 mM tris–HCl, 10 mM MgCl2, 0.005% (v/v) Tween 20, pH 8.0, 0.2 mM DTT, and 0.1 mg/mL BSA. In general, compounds [25 μL, 0.4% (v/v) DMSO] were pre-incubated with IDH1 (25 μL) for 12 min, followed by addition of DL-isocitrate/2OG (25 μL) and NADP^+/NADPH (25 μL) to initiate the reaction. The substrate/cofactor concentrations were optimized by determining KM values for substrates/cofactors as described.[10]

[2] = biological target: T2, IDH1 R132H (Homo sapiens, UniProt O75874, R132H); experiment: Absorbance turnover assay (NADPH, 340 nm), IDH1 R132H-catalyzed conversion of 2OG to 2HG; format: biochemical
T2 construct: made in house; host or cells: Escherichia coli BL21(DE3) pLyS
Procedure: as §1

[3] = biological target: T1, wt IDH1; experiment: Differential scanning fluorimetry (DSF) thermal shift, wt IDH1; format: binding; conditions: largest change in Tm of IDH1 ([…]) with 3-100 μM inhibitor
Procedure: Thermal shift experiments were carried out using Sypro Orange and a CFX96 Touch Real-Time PCR Detection System (Bio-Rad) machine.[42] […] The standard assay buffer contains 50 mM tris–HCl at pH 7.5. Various concentrations of compounds (1% DMSO final) were mixed with IDH1 for thermal stabilization studies. […] Bio-Rad CFX Manager was used to determine the melting temperature, Tm.

[4] = biological target: T1, wt IDH1; experiment: Circular dichroism (CD) melting temperature, wt IDH1; format: binding; conditions: inhibitor 42 μM, IDH 4.2 μM (0.2 mg/mL); read-out: Δ Tm/°C by CD wt IDH1
Procedure: CD spectra were acquired using a Chirascan CD spectrometer (Applied Photophysics) with a Peltier temperature-control cell holder. Experiments were carried out in a 0.1 cm path length quartz cuvette at 20 °C. […] Spectra were averaged (n = 3) and smoothed (window size = 7) using the Savitzky–Golay filter. The mean residue ellipticity (MRE) was calculated according to the formula [drawing 1] where θ is the degree of ellipticity, N is the number of amino acids, c is the concentration (mol/L), and l is the path length (cm).
Measurements were conducted in 2 °C increments. The melting temperature was calculated using a Boltzmann sigmoidal model in GraphPad Prism v5.04.

[5] = biological target: T1, wt IDH1; experiment: Isothermal titration calorimetry (ITC), wt IDH1; format: binding; conditions: 40 μM IDH1, 50 mM tris-HCl pH 7.5, 25 °C
Procedure: (§2) ITC was conducted using a Malvern MicroCal PEAQ-ITC Automated machine (Malvern Panalytical). In general, IDH1 was prepared in 50 mM tris–HCl, pH 7.5, and the compounds were dissolved in the same buffer. 400 μL of cell solution containing 40 μM IDH1 [4% (v/v) DMSO] and 200 μL of the titrant containing 200 or 400 μM compound [2% or 4% (v/v) DMSO] were transferred to an ITC plate (Malvern Panalytical WEL020854-010). […] The injection setup consisted of 19 injections, with 1 initial injection of 0.4 μL and 18 subsequent injections of 2.0 μL each with 150 s between the injections. Thermodynamic parameters were obtained using MicroCal PEAQ-ITC analysis software.

[6] = biological target: T2, IDH1 R132H; experiment: Isothermal titration calorimetry (ITC), IDH1 R132H; format: binding; conditions: 40 μM IDH1, 50 mM tris-HCl pH 7.5, 25 °C
Procedure: as §2

[7] = biological target: T2, IDH1 R132H; experiment: Non-denaturing MS binding, IDH1 R132H; conditions: Figure S7b
Procedure: Non-denaturing mass spectra were obtained using a quadrupole time-of-flight mass spectrometer (Synapt HD MS, Waters, Manchester, UK).[44],[45] […] Protein concentrations were measured using a Nanodrop spectrometer (Thermo Scientific NanoDrop One). Compounds were dissolved in MeOH to avoid DMSO interference with mass spectra. IDH1 (20 μL of 50 μM final) and the compound of interest (1–4% (v/v) MeOH) in 200 mM ammonium acetate at pH 7.5 were pipetted into wells of a sample plate of an automated chip-based nano-electrospray ion source (TriVersa Nanomate, Advion, Ithaka, NY, USA). Compounds were serially diluted in buffer and mixed with IDH1 diluted in buffer. The mixture was sprayed through a nozzle in a Nanomate chip at a spray voltage of 1.8–2.0 kV (spray backing gas pressure 0.8–1.0 psi, inlet pressure 3.8 mbar). […] Data collection and analyses used Waters MassLynx software. Mass spectra were calibrated externally using CsI solution. KD values were calculated using eq 2 as reported[46] at each compound concentration and are reported as an average across multiple concentrations. For inhibitors with a binding stoichiometry of two inhibitors/IDH dimer, the inhibitor-bound protein peak intensity used was a sum of first and second inhibitor-bound protein peak intensities. Data for the IDH1 dimer m/z = 20^+ charge state are shown. For clarity, only 2× NADPH bound protein peaks are annotated.

T2 sequence (O75874 whole entry R132H): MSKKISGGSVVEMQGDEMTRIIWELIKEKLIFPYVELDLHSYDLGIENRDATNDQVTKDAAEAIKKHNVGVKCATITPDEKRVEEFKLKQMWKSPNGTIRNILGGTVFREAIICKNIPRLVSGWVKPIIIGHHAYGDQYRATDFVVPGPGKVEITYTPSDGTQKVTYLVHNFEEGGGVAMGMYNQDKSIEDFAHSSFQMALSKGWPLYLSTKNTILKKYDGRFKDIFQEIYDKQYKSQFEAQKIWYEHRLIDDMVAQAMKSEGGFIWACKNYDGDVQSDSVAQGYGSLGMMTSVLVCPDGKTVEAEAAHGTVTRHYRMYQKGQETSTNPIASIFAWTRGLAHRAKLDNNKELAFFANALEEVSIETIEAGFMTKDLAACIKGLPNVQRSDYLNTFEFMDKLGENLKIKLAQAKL
T1 sequence (O75874 whole entry): as the sequence (O75874 whole entry R132H) above, with H132R counted along it

IC50 [1]: > 10000 nM | Selectivity against IDH1 R132H over IDH1 wt ([2]; IC50 (IDH1 wt)/IC50 (IDH1 R132H)): >164 | IC50 ([2]; IDH1 R132H (30 nM), 2OG to 2HG, 100 mM tris-HCl, 10 mM MgCl2, pH 8.0): 61 nM | Δ Tm/°C by DSF wt IDH1 [3]: 6.9 °C | ΔTm at 42 µM [4]: 2.9 °C | Kd [5]: > 400 µM | Kd [6]: > 400 µM | stoichiometry, inhibitors per IDH1 dimer, IDH1 R132H [7]: 1
Structure (SMILES): Cc1ccccc1C(C(=O)NC1CCCCC1)N(C(=O)Cn1ccnc1C)c1cccc(F)c1 (centres unmarked) [AGI-5198]
